Experimental data published in patent publication US20260000082A1, “STABILIZED LIQUID HERBICIDE FORMULATION OF HIGH-LOAD PYRASULFOTOLE” (ADAMA AGAN LTD., priority 2022, published 2026).

Test: Solubility of Pyrasulfotole in solvents with and without organic amine at room temp (24° C.)
Format: physicochemical
Conditions: for increase of solubility: 24° C.
Method: Some of the results are tabulated as follows:
Solubility of Pyrasulfotole in Dimethyl sulfoxide (DMSO) and in a mixture of Pyrasulfotole with DMSO and amine at room temp (24° C.) was tested.
Solubility of Pyrasulfotole in Cyclohexanone and in a mixture of Pyrasulfotole with Cyclohexanone and amine at room temp (24° C.) was tested.
Solubility of Pyrasulfotole in Propylene carbonate and in a mixture of Pyrasulfotole with Propylene carbonate and amine at room temp (24° C.) was tested.

Cc1nn(C)c(O)c1C(=O)c1ccc(C(F)(F)F)cc1S(C)(=O)=O [Pyrasulfotole]
increase of solubility (Cyclohexanone/Genamin C-50 66/34 versus Cyclohexanone alone): about 400%
increase of solubility (DMSO/GENAMIN C-50 66/34 versus DMSO alone): about 26%
increase of solubility (Propylene carbonate/Genamin C-50 70/30 versus Propylene carbonate alone): about 620%
Solubility (%) (solvent Cyclohexanone, rate 100, room temp (24° C.)): 8.24%
Solubility (%) (solvent Cyclohexanone/Genamin C-50, rate 66/34, room temp (24° C.)): 32.99%
Solubility (%) (solvent DMSO, rate 100, room temp (24° C.)): 26.98%
Solubility (%) (solvent DMSO/GENAMIN C-50, rate 66/34, room temp (24° C.)): 39.24%
Solubility (%) (solvent Propylene carbonate, rate 100, room temp (24° C.)): 4.59%
Solubility (%) (solvent Propylene carbonate/Genamin C-50, rate 70/30, room temp (24° C.)): 28.57%
